“And” between values parts separate entries of the source, which are not always exact repeats. Equal values may be shown once.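 These data come from cells grown in 96-well plates and exposed to compound for 48 hours at five concentrations. At the GI50, growth is halved. TGI marks complete inhibition of growth.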
Assays:
Test in all cases: DTP human tumour cell line panel, 48 h
[1] = tested on: HOP-62 NSCLC
[2] = tested on: UACC-257 melanoma
[3] = tested on: CCRF-CEM leukemia
[4] = tested on: SF-268 CNS
[5] = tested on: KM12 colon
[6] = tested on: RPMI-8226 leukemia
[7] = tested on: U251 CNS
[8] = tested on: A549 NSCLC
[9] = tested on: CAKI-1 renal
[10] = tested on: SNB-19 CNS

Row | SMILES | GI50 [1] | TGI [1] | GI50 [2] | TGI [2] | GI50 [3] | TGI [3] | GI50 [4] | TGI [4] | GI50 [5] | TGI [5] | GI50 [6] | TGI [6] | GI50 [7] | TGI [7] | GI50 [8] | TGI [8] | GI50 [9] | TGI [9] | GI50 [10] | TGI [10]
1 | C=C(CN1CCc2ccccc2C1)c1ccc(C(=O)Nc2ccccc2N)cc1 | 1 µM | 17 µM | 1.55 µM | 16.2 µM | 1.96 µM | 12.7 µM | 1.87 µM | 9.74 µM | 1.26 µM | 4.54 µM | 0.793 µM | > 12.9 µM | 0.911 µM | 4.8 µM | 2.05 µM | > 50 µM | 1.2 µM | 7.69 µM | 2.39 µM | > 50 µM
2 | Cc1cc(N(CCC#N)CCC#N)ccc1/C=C1N=C(/C=C/c2ccccc2)OC(=O)N\1 |  | > 100 µM |  | > 100 µM |  | > 100 µM |  | > 100 µM |  | > 100 µM |  | > 100 µM |  | > 100 µM |  | > 100 µM |  | > 100 µM |  | > 100 µM
3 | COc1ccccc1-c1cc(=O)c2ccc(C)nc2[nH]1 |  | > 100 µM |  | > 100 µM |  | > 100 µM |  | > 100 µM |  | > 100 µM |  | > 100 µM | > 100 µM | > 100 µM |  | > 100 µM |  | > 100 µM |  | > 100 µM
4 | Cc1ccccc1Nc1nc2c(s1)C(=O)c1ccccc1C2=O |  | 30.2 µM |  | 12.4 µM |  | > 37.5 µM |  | 13 µM |  | 23.4 µM |  | 18 µM |  | 8.83 µM |  | 27.9 µM |  | 30.3 µM |  | 13.2 µM
5 | Cn1c([N+](=O)[O-])cnc1/C=C1\Oc2cc(Cl)ccc2C1=O | 1.88 µM | 6.07 µM | 0.997 µM | 4.99 µM | 0.148 µM | 0.754 µM | 0.371 µM | 2.85 µM | 0.501 µM | 6.78 µM | 1.73 µM | > 20.5 µM | 1.53 µM | 5.07 µM | 1.7 µM | 7.06 µM | 0.296 µM | 1.18 µM | 1.64 µM | 6.21 µM
6 | O=C(/C=C/c1ccccc1)CC(c1ccccc1)N1CCOCC1 (stereo unspecified) | 3.25 µM | 11.9 µM | 5.63 µM | 18.8 µM | 2.42 µM | 7.3 µM | 5.07 µM | 19.3 µM | 1.99 µM | 3.72 µM | 1.98 µM | 5.21 µM | 2.44 µM | 5.21 µM | 11.7 µM | 29 µM | 3.38 µM | 12.9 µM | 9.8 µM | 21.9 µM
7 | CC1(c2ccccc2)CC(c2ccccc2)=NO1 (stereo unspecified) |  | > 100 µM |  | > 100 µM |  | > 100 µM |  | > 100 µM |  | > 100 µM |  | > 100 µM |  | > 100 µM |  | > 100 µM |  | > 100 µM |  | > 100 µM
8 | COc1ccc(/C=C2/CCc3cc4ccc(OC)cc4[o+]c32)c(O)c1 | 13.1 µM | 28 µM | 15.8 µM | 32 µM | 3.88 µM | > 100 µM | 2.8 µM | 9.83 µM | 2.65 µM | 7.44 µM | 3.17 µM | 12.9 µM | 2.3 µM | 5.57 µM | 18.5 µM | 41.6 µM | 10.7 µM | 22.5 µM | 8.48 µM | 25.6 µM
9 | Cc1ncc(C(=O)Nc2ccc(CN3CCN(C)CC3)c(C(F)(F)F)c2)cc1C#Cc1cnc(NC2CC2)c2ncccc12 | 1.41 µM | 3.06 µM | 0.719 µM | 1.59 µM | 0.614 µM | 1.46 µM | 0.755 µM | 1.48 µM | 0.197 µM | 0.819 µM | 0.621 µM | 1.62 µM | 0.581 µM | 1.11 µM | 0.682 µM | 1.33 µM | 1.66 µM | 3.47 µM | 0.713 µM | 1.32 µM
10 | CCN(CC)CCNC(=O)c1c(C)[nH]c(/C=C2\C(=O)Nc3ccc(F)cc32)c1C | 5.27 µM and 2.42 µM and 2.64 µM | > 10 µM and 5.94 µM and 15.3 µM | > 10 µM and 2.49 µM and 3.24 µM | > 10 µM and 5.21 µM and 8.69 µM | 5.62 µM and 6.48 µM and 1.89 µM | > 10 µM and 20 µM and 8.85 µM | > 10 µM and 2.73 µM and 4.57 µM | > 10 µM and 6.09 µM and 16.9 µM | 0.11 µM and 0.1 µM and 0.0322 µM | > 10 µM and 3.03 µM and 5.54 µM | 2.93 µM and 4.58 µM and 1.46 µM | > 10 µM and 10.9 µM and 5.31 µM | 5.33 µM and 3.06 µM and 2.25 µM | > 10 µM and 6.34 µM and 7.54 µM | 5.52 µM and 2.97 µM and 3.85 µM | > 10 µM and 6.44 µM and 17.6 µM | 1.07 µM and 1.04 µM and 0.794 µM | > 10 µM and 20 µM and 6.77 µM | > 10 µM and 5.36 µM and 11.4 µM | > 10 µM and 16.3 µM and 25.6 µM
11 | CCOC(=O)/C(=C/c1cccc(OC)c1)N(CC)CC |  | > 100 µM |  | > 100 µM |  | > 100 µM |  | > 100 µM |  | > 100 µM |  | > 100 µM |  | > 100 µM |  | > 100 µM |  | > 100 µM |  | > 100 µM
12 | O=S1(=O)NCCCN1CCNc1nccc(-c2c(-c3cccc(O)c3)nc3sccn23)n1 | 42.3 µM | > 100 µM | 2.99 µM | > 100 µM | 13.5 µM | > 100 µM | 24.4 µM | > 100 µM | 33.3 µM | > 90.4 µM | 35.9 µM | > 87.5 µM | 21.6 µM | > 100 µM | 42.5 µM | > 100 µM | 17.4 µM | > 94 µM | > 92.5 µM | > 100 µM
13 | C=C1CC2(OC1=O)C(=O)N(CCCN1C(=O)C3(CC(=C)C(=O)O3)c3ccccc31)c1ccccc12 (stereo unspecified) | 7.34 µM | 21.8 µM | 1.66 µM | 3.95 µM | 0.416 µM | 2.5 µM | 3.32 µM | 12 µM | 2.72 µM | 12 µM | 0.579 µM | 2.78 µM | 5.45 µM | 18.7 µM | 10.4 µM | 24 µM | 1.17 µM | 2.39 µM | 13.3 µM | 26.2 µM
14 | CCCCCCCCCCCC[n+]1ccccc1 (tested in a mixture with another compound) | 1.15 µM | 3.59 µM | 0.772 µM | 2.88 µM | 0.724 µM | 4.53 µM | 1.2 µM | 3.44 µM | 0.38 µM | 1.59 µM | 0.23 µM | 1.52 µM | 0.443 µM | 2.2 µM | 1.68 µM | 4.43 µM | 1.01 µM | 9.03 µM | 1.29 µM | 3.48 µM

From PubChem BioAssay (NCI)
